Series [1] can be described thus: Interaction of GSAO with synthetic, peptide and protein dithiols (summary). As to conditions: units printed within the range; read-out: dissociation constants, range over all dithiols. Type of series: binding. The protocol: FIG. 12. Interaction of GSAO with synthetic. Deptide and protein dithiols. DMP (A) (15 μM), 6,8-thioctic acid (B) ([…]), dithiothreitol (C) (8.5 μM), TrpCysGlyProCysLys (D) (4.6 μM), TrpCysGlyHisCysLys (E) (5.5 μM) or thioredoxin (F) (4.1 μM corresponding to 20.6 μM thiols) was incubated with GSAO (0–56 μM) for 10 minutes. DTNB (950 μM) was then added and the reactions incubated for a further 10 minutes. The concentration of thiol in the reactions was determined from the absorbance of the TNB dianion at 412 nm. The solid lines represent the best non-linear least squares fit of the data to Equation 1 (A to E) or Equation 2 (F) and have been drawn using the parameter estimates in Table 1. The dotted line in part A represents a simulated titration assuming an infinite affinity of GSAO for the dithiol. GSAO bound to both synthetic, peptide and protein dithiols with dissociation constants in the range 130 nM to 1.4 μM.
Binding of GSAO to dithiols was measured from loss of thiols using the DTNB assay described above. The dissociation constant, Kd, for GSAO binding to dithiols was determined by incubating increasing concentrations of GSAO, I, with a fixed dithiol concentration, [S]T, and measuring the remaining dithiol using DTNB. Note that the concentration of dithiol equals half the TNB concentration. […]

Series [2] deals with adjuvant-induced arthritis. The conditions noted are these: rat, in vivo.
In a further series the test system is HT1080 cells. Put plainly: Proliferation and viability of cultured cells, 72 hr, cell count. Format: cell-based, human. As for the experimental part:
(§1) FIG. 19. Effect of GSAO on Proliferation of non-endothelial cells. 15,000 BxPC-3 (part A), HT1080 (part B), 3T3 (part C) or BVSM (part D) cells per well were seeded into gelatinised 24-well culture plates and allowed to attach for 24 hr. The media was then replaced with DMEM containing 0 to 1 mM GSAO or GSAA and either 5% BCS (part D) or 5% FCS (parts A, B and C). Cells were cultured for 72 hr and then dispersed and counted. The dotted lines indicate the cell number in control wells containing DMEM and 2% BCS (part D) or 2% FCS (parts A, B and C) which represented no to limited proliferation. The data points and errors represent the mean and range of duplicate wells.
(§2) BCE (Folkman et al. 1979), BAE, BxPC-3 (ATCC, Bethesda, Md.), HT1080 (Jiang et al., 1999), 3T3 (ATCC, Bethesda, Md.) and BVSM (Hogg et al., 1997) cells were harvested and cultured as indicated. Cells (0.5 mL of 30,000 or 100,000 cells per mL) were seeded into gelatinized 24-well culture plates (Corning Costar, Corning, N.Y.) in Dulbecco's Modified Eagle's Medium (DMEM, JHR Bioscience, Lenexa, Kans.) containing 10% fetal calf serum (FCS, Intergen Comp., Purchase, N.Y.) and 1% Glutamine Pen-Strep (GPS, Irvine Scientific, Santa Ana, Va.) and allowed to attach for 24 hr in 10% CO2 at 37° C. The media was then replaced with DMEM and 1% GPS containing 0 to 1 mM GSAO or GSAA and either 5% bovine calf serum (BCS, HyClone, Logan, Utah) and 1 ng per mL FGF-2 (Genzyme, Cambridge, Mass.) or 5% BCS and 10 ng per mL VEGF (Genzyme, Cambridge, Mass.) for BCE cells, 5% or 10% BCS for BAE cells, 5% BCS for BVSM cells, and 5% FCS for BxPC-3, HT1080 and 3T3 cells. Cells were cultured for 0 to 72 hr in 10% CO2 at 37° C. then dispersed in trypsin/EDTA (GibcoBRL, Granc Island, N.Y.), resuspended in Coulter balanced electrolyte solution and counted with a Z1 Coulter counter (Coulter Corp., Miami, Fla.). In all experiments there were two control wells containing DMEM with 1% GPS and either 5% BCS for BCE cells, 2% BCS for BAE and BVSM cells, or 2% FCS for BxPC-3, HT1080 and 3T3 cells. These wells represented no to limited proliferation.

The subject of another series is BxPC-3 cells. The series is described as above. Type of series: cell-based, human. The protocol: as §1, §2
The subject of series [3] is adjuvant-induced arthritis, rat ankles. As to conditions: in vivo.
For the next series, the system named is 3T3 fibroblasts. The experiment in a line: Proliferation and viability of cultured cells, 72 hr, cell count. Type of series: cell-based, murine. As for the experimental part: as §1, §2
In series [4] the test system is chick chorioallantoic membrane (CAM) angiogenesis. The experiment in a line: Chick chorioallantoic membrane (CAM) angiogenesis assay. Format: in vivo. As to conditions: 5, 10 or 50 μg per pellet, 48 hr. As for the experimental part: FIG. 22. Inhibition of CAM angiogenesis by GSAO. Fertilised 3 day-old white Leghorn eggs were cracked, the embryos placed in petri dishes and incubated for 3 days. Methylcellulose discs containing 5, 10 or 50 μg of either GSAA or GSAO were then applied to the CAM of individual embryos and incubated for 48 hr. The CAMs were scored for no obvious effect or inhibition of angiogenesis as defined by avascular zones. Photographs of CAM's after incubation with discs containing 10 μg of either GSM (top) or GSAO (bottom) is shown in the left hand panel. The dotted circle indicates the placement of the disc.
The chick CAM assay has been used for the detection and analysis of angiogenesis inhibition (Nguyen et al., 1994). Fertilised 3 day-old white Leghorn eggs (Spafas, Norwich, Conn.) were cracked, the embryos with intact yolks placed in 20×100 mm petri dishes and incubated for 3 days at 37° C. and 3% CO2 (Folkman, 1995). Methylcellulose (Fisher Scientific, Fair Lawn, N.J.) discs containing 5, 10 or 50 μg of either GSAA or GSAO were then applied to the CAM of individual embryos and incubated for 48 hr at 37° C. and 3% CO2. The discs were made by desiccation of GSAA or GSAO in 10 μl of 0.45% methycellulose on teflon rods. The CAMs were observed using a stereomicroscope and scored for no obvious effect or inhibition of CAM angiogenesis as defined by avascular zones. On some occasions CAM blood vessels were injected with India ink and photographed.

“Also recorded” adds a separate entry of the source.

Data on two compounds can be found in patent publication US7186695B2 (priority 2001, dated 2007).

As usually defined, the IC50 is the midpoint of a concentration-inhibition curve.

Take `NC(CCC(=O)NC(CSCC(=O)Nc1ccc([As]=O)cc1)C(=O)NCC(=O)O)C(=O)O` (stereo not drawn) [GSAO, 4-(N-(S-glutathionylacetyl)amino)-phenylarsenoxide]: the Kd in series [1] lay in the range of 0.13 to 1.4 µM. Besides, in series [2], the “development of arthritis measured by arthritis severity score, gait, paw volume or weight loss” value was “effectively blocked” and the “signs or symptoms of toxicity for the rats” value was “no signs or symptoms of toxicity”. In addition, the “weight gain, GSCA vs GSAO treated rats” value in series [2] (2 mg/kg) is reported as “no difference in weight gain”. In addition, in the series with HT1080 cells (HT1080, 5% FCS, 72 hr), the “Proliferation IC50” value is given as “did not affect the proliferation; also recorded: No effect”. Besides, the IC50 in the series on HT1080 cells (Homo sapiens, HT-1080, HT1080, 5% FCS, 72 hr) was approximately 40 µM. In the series on BxPC-3 cells (BxPc3, 5% FCS, 72 hr), the “Proliferation IC50” value is given as “did not affect the proliferation; also recorded: No effect”. Also, the IC50 in the series on BxPC-3 cells (Homo sapiens, BXPC-3, BxPc3, 5% FCS, 72 hr) was approximately 40 µM. For the same compound, in series [3], the pannus formation entry is “significantly reduced; also recorded: little to no pannus formation”, the “periarticular inflammation (density of inflammatory cells)” value is “significantly reduced; also recorded: almost no inflammatory cells” and the “signs of new bone formation (periosteal reaction)” value is “none”. Also, in the series on 3T3 fibroblasts (3T3, 5% FCS, 72 hr), the “Proliferation IC50” value is reported as “did not affect the proliferation; also recorded: No effect”. Also, the concentration for half-maximal inhibition (IC50) with 3T3 fibroblasts (Mus musculus, Fibroblast, 3T3, 5% FCS, 72 hr) was approximately 40 µM. Moreover, in series [4], the “adverse effect on the wellbeing of the chick embryo” value is reported as “Neither GSAA nor GSAO had any apparent adverse effect” and the “inhibition of CAM angiogenesis (avascular zones)” value was “inhibited angiogenesis in the CAM in a concentration-dependent manner”.

Turning to `N[C@@H](CCC(=O)N[C@@H](CSCC(=O)Nc1ccc([As](=O)(O)O)cc1)C(=O)NCC(=O)O)C(=O)O` [GSAA, 4-(N-(S-glutathionylacetyl)amino)phenylarsonic acid, reference compound], the “effect on proliferation or viability” value is reported as “no significant effect” in the series with HT1080 cells (HT1080, up to a concentration of 1 mM); “no significant effect” in the series with BxPC-3 cells (BxPC-3, up to a concentration of 1 mM); “no significant effect” in the series with 3T3 fibroblasts (3T3, up to a concentration of 1 mM). In series [4], the “adverse effect on the wellbeing of the chick embryo” value is “Neither GSAA nor GSAO had any apparent adverse effect”. Also, the “inhibition of CAM angiogenesis (avascular zones)” value in series [4] is “did not inhibit CAM angiogenesis”; in series [4] (listed as GSM), “no effects”.
